Measurements reported in patent US20100130482A1, “DIA[…] DERIVATIVES AS NICOTINIC ACETYLCHOLINE RECEPTOR LIGANDS” (priority 2004, published 2010).
pIC50: −log10 of the molar value. Counter-ions that a name gives are not always drawn.

What was measured:
[1] = target: T1, α7-subtype of nicotinic receptors (Rattus norvegicus, UniProt Q05941); assay: In vitro inhibition of 3H-α-bungarotoxine binding in rat brain; details: rat cerebral cortex homogenate; 3H-α-bungarotoxine 2 nM; 2 hours at 37° C.
T1 construct: Cerebral cortices from male Wistar rats (150-250 g) are homogenised; from tissue; host or cells: rat cerebral cortex membrane homogenate
T1 sequence (Q05941 23-502): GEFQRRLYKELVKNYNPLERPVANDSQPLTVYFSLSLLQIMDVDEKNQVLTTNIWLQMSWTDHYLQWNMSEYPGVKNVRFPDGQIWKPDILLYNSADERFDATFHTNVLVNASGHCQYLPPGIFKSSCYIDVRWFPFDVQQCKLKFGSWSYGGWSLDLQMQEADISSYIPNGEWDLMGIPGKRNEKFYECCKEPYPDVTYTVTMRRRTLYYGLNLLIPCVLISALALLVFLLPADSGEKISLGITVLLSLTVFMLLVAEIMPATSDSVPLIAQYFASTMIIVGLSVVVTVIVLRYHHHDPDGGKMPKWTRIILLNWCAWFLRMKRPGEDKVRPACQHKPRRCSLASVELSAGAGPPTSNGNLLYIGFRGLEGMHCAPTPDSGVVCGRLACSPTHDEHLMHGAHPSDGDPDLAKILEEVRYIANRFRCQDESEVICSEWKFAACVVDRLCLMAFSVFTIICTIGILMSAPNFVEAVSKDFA

Row | SMILES | melting point | pIC50 [1]
1 | Nc1ccc(C(=O)Nc2ccc(-c3ccc(C(=O)N4CCN5CCC4CC5)o3)cc2)cc1 | 151 °C | 
2 | O=C(Nc1ccc(-c2ccc(C(=O)N3CCN4CCC3CC4)o2)cc1)Nc1cccc(F)c1 | 230 °C | 
3 | O=C(Nc1ccc(-c2ccc(C(=O)N3CCN4CCC3CC4)o2)cc1)Nc1ccccc1C(F)(F)F | 253 °C (dec.) | 
4 | O=C(Nc1ccc(-c2ccc(C(=O)N3CCN4CCC3CC4)o2)cc1)Nc1cccc(C(F)(F)F)c1 | 171 °C | 
5 | O=C(c1ccc(-c2ccc(NC(=S)Nc3ccccc3)cc2)o1)N1CCN2CCC1CC2 | 171.4 to 174.7 °C | 
6 | CCNC(=O)Nc1ccccc1NC(=O)Nc1ccc(-c2ccc(C(=O)N3CCN4CCC3CC4)o2)cc1 (as salt: fumaric acid salt) | 162.5 to 165.5 °C | 
7 | CCNC(=O)Nc1cccc(-c2ccc(C(=O)N3CCN4CCC3CC4)o2)c1 (as salt: fumaric acid salt) | 158 to 161 °C | 
8 | O=C(Nc1ccc(-c2ccc(C(=O)N3CCN4CCC3CC4)o2)cc1)c1ccncc1 (as salt: fumaric acid salt) | 250 to 253.5 °C | 
9 | O=C(Nc1cccc(-c2ccc(C(=O)N3CCN4CCC3CC4)o2)c1)c1ccccc1 (as salt: fumaric acid salt) | 201 to 204 °C | 
10 | O=C(c1ccc(-c2ccc(-n3cccc3)cc2)o1)N1CCN2CCC1CC2 (as salt: fumaric acid salt) | 222 °C | 
11 | CC(=O)Nc1ccccc1NC(=O)Nc1ccc(-c2ccc(C(=O)N3CCN4CCC3CC4)o2)cc1 (as salt: fumaric acid salt) [Compound B2, 1-{4-[5-(1,4-Diaza-bicyclo[3.2.2]nonane-4-carbonyl)-furan-2-yl]-phenyl}-3-(2-acetylaminophenyl)-urea] | 159 to 169 °C | 
12 | CCNC(=O)Nc1ccc(-c2ccc(C(=O)N3CCN4CCC3CC4)o2)cc1 (as salt: fumaric acid salt) [Compound C3, 1-{4-[5-(1,4-Diaza-bicyclo[3.2.2]nonane-4-carbonyl)-furan-2-yl]-phenyl}-3-ethyl-urea] | 167 to 171 °C | 
13 | Nc1ccccc1NC(=O)Nc1ccc(-c2ccc(C(=O)N3CCN4CCC3CC4)o2)cc1 [Compound A1, 1-{4-[5-(1,4-Diaza-bicyclo[3.2.2]nonane-4-carbonyl)-furan-2-yl]-phenyl}-3-(2-aminophenyl)-urea] | 174 °C | 8.92
14 | CC(=O)Nc1ccccc1NC(=O)Nc1ccc(-c2ccc(C(=O)N3CCN4CCC3CC4)o2)cc1 [Compound B2, 1-{4-[5-(1,4-Diaza-bicyclo[3.2.2]nonane-4-carbonyl)-furan-2-yl]-phenyl}-3-(2-acetylaminophenyl)-urea] |  | 8.80
15 | CCNC(=O)Nc1ccc(-c2ccc(C(=O)N3CCN4CCC3CC4)o2)cc1 [Compound C3, 1-{4-[5-(1,4-Diaza-bicyclo[3.2.2]nonane-4-carbonyl)-furan-2-yl]-phenyl}-3-ethyl-urea] |  | 9.25

More lines, main results first:

Row | melting point | SMILES | pIC50 [1]
16 | 249 to 252 °C | Nc1cccc(C(=O)Nc2ccc(-c3ccc(C(=O)N4CCN5CCC4CC5)o3)cc2)c1 | 
17 | 241 °C (dec.) | O=C(Nc1ccc(-c2ccc(C(=O)N3CCN4CCC3CC4)o2)cc1)Nc1ccccc1F | 
18 | 200 to 211 °C (dec.) | O=C(Nc1ccc(-c2ccc(C(=O)N3CCN4CCC3CC4)o2)cc1)Nc1ccccc1Cl | 
19 | 254 °C | O=C(Nc1ccc(-c2ccc(C(=O)N3CCN4CCC3CC4)o2)cc1)c1ccccc1 | 
20 | 198 to 202 °C | O=C(Nc1ccc(-c2ccc(C(=O)N3CCN4CCC3CC4)o2)cc1)Nc1ccccc1[N+](=O)[O-] (as salt: fumaric acid salt) | 
21 | 223 °C | O=C(c1ccc(-c2ccc(Nc3ncccc3[N+](=O)[O-])cc2)o1)N1CCN2CCC1CC2 (as salt: fumaric acid salt) | 
22 | 283 °C | O=C(Nc1ccc(-c2ccc(C(=O)N3CCN4CCC3CC4)o2)cc1)c1ccccc1[N+](=O)[O-] (as salt: hydrochloric acid salt) | 
23 | 195 to 210 °C | O=C(Nc1ccc(-c2ccc(C(=O)N3CCN4CCC3CC4)o2)cc1)c1ccc([N+](=O)[O-])cc1 (as salt: hydrochloric acid salt) | 
24 | > 300 °C | O=C(Nc1ccc(-c2ccc(C(=O)N3CCN4CCC3CC4)o2)cc1)c1cccc([N+](=O)[O-])c1 (as salt: hydrochloric acid salt) | 
